Source: publication PMC12040169 (PLOS Biology, 2025)

assay: in vitro; settings: human, hela cells, % viability

Going from `COc1ccccc1CN(C1CCNCC1)S(=O)(=O)c1c(Cl)cccc1Cl` [CBK160807T] to `COc1ccc(S(=O)(=O)N(Cc2c(F)cccc2F)C2CCN(C)CC2)cc1` [CBK161910T], the viability at 28.5 h, 10 µM rises from 89.2% to 109%.

Going from `Brc1c(OCc2ccccc2)ccc2[nH]ccc12` [CBK160845] to `CC(C)c1ccc(CNC(=O)c2ccc3[nH]ccc3c2)cc1` [CBK161754], the viability at 28.5 h, 10 µM falls from 96.5% to 96.1%.

First: NC(=O)CCNC(=O)C1(c2ccccc2)CCCC1 [CBK160929]
Second: Cc1ccc(CNC(=O)C2(c3ccccc3)CCCC2)cc1F [CBK161529]
The viability at 28.5 h, 10 µM of the first is higher: 104% for the first, 85.6% for the second.

Going from `NCCNC(=O)c1cc(-c2ccc(Cl)cc2)[nH]n1` [CBK160975] to `NCC(O)CNC(=O)c1cc(-c2ccc(Cl)cc2)[nH]n1` (stereo not drawn) [CBK160977], the viability at 28.5 h, 10 µM falls from 110% to 87%.

First: CCc1ccc(CNC(=O)Cn2nnc(-c3ccc(CNCC4CC4)cc3)n2)cc1 [CBK161032C]
Second: CCCCOc1ccc(C(=O)N(C)c2ccc(CCC)cc2)cc1 [CBK161619]
The viability at 28.5 h, 10 µM of the first is higher: 109% for the first, 95.9% for the second.

First: COc1cccc(CN2CCOC3(CCN(C(=O)OCc4ccccc4)CC3)C2)c1 [CBK161098T]
Second: COc1cc(CN2CCOC3(CCN(C(=O)OCc4ccccc4)CC3)C2)cc(OC)c1OC [CBK161104T]
The viability at 28.5 h, 10 µM of the first is higher: 95.4% for the first, 79.4% for the second.

Going from `O=C(OCc1ccccc1)N1CCC2(CC1)CN(c1ccc([N+](=O)[O-])cn1)CCO2` [CBK161111T] to `Cc1cc(C)c(C#N)c(N2CCOC3(CCN(C(=O)OCc4ccccc4)CC3)C2)n1` [CBK161114T], the viability at 28.5 h, 10 µM falls from 92% to 91%.

First: COc1cc(OC)nc(CN2CCOC3(CCN(C(=O)c4ccc5ccccc5c4)CC3)C2)n1 [CBK161121A]
Second: Cc1ccc(C(=O)N2CCC3(CC2)CC(=O)c2cc(Br)ccc2O3)cc1C [CBK162264]
The viability at 28.5 h, 10 µM of the first is lower: 91.6% for the first, 105% for the second.

Going from `O=C(O)c1cccc(S(=O)(=O)Nc2nc3c(Cl)cccc3s2)c1` [CBK161135] to `O=C(O)c1cccc(S(=O)(=O)Nc2nc3ccccc3s2)c1` [CBK161138], the viability at 28.5 h, 10 µM rises from 96.5% to 102%.

Compared with `CCOc1ccc2nc(NS(=O)(=O)c3cccc(C(=O)O)c3)sc2c1` [CBK161137], `COc1cccc2cc(C(=O)NCc3ccc(NS(C)(=O)=O)cc3)oc12` [CBK161479] is lower in viability at 28.5 h, 10 µM: 102% for the first, 70.8% for the second.

Compared with `O=C(O)C1CCCN(C(=O)NCc2ccc3c(c2)OCO3)C1` (stereo not drawn) [CBK161346], `O=C(O)C1CCCN(C(=O)NCc2ccc(F)cc2)C1` (stereo not drawn) [CBK161364] is higher in viability at 28.5 h, 10 µM: 93.4% for the first, 95.7% for the second.

Going from `O=C(O)C1CCCN(C(=O)NCCOc2ccccc2)C1` (stereo not drawn) [CBK161366] to `COc1ccc(CCNC(=O)N2CCCC(C(=O)O)C2)cc1` (stereo not drawn) [CBK161367], the viability at 28.5 h, 10 µM falls from 115% to 101%.

Compared with `Cc1ccc(NC(=O)N2CCCC(C(=O)O)C2)cc1` (stereo not drawn) [CBK161371], `CCOC(=O)CCCNC(=O)N1CCCC(C(=O)O)C1` (stereo not drawn) [CBK161374] is lower in viability at 28.5 h, 10 µM: 89.5% for the first, 83.5% for the second.

Compared with `O=C(O)C1CCCN1C(=O)Nc1ccccc1Cl` (stereo not drawn) [CBK161381], `COc1ccc(CCNC(=O)N2CCCC2C(=O)O)cc1` (stereo not drawn) [CBK161386] is higher in viability at 28.5 h, 10 µM: 95.8% for the first, 116% for the second.

Compared with `COc1cc(C(=O)N2CCC(N(C)C)C2)ccc1Nc1cncc(-c2cc3ccccc3[nH]2)n1` (stereo not drawn) [CBK161475], `COc1ccc(Cc2c(C)nc3c(C(=O)NCC4COc5ccccc5O4)cnn3c2C)cc1` (stereo not drawn) [CBK162179] is higher in viability at 28.5 h, 10 µM: 90.6% for the first, 102% for the second.

First: CC(C)c1ccc(/C=C/C(=O)NCc2ccc(S(N)(=O)=O)cc2)cc1 [CBK161511]
Second: NS(=O)(=O)c1ccc(CNC(=O)C2(c3ccccc3)CCCC2)cc1 [CBK161523]
The viability at 28.5 h, 10 µM of the first is higher: 110% for the first, 101% for the second.

First: CC(C)c1ccc(CNC(=O)C2(c3ccccc3)CCCC2)cc1 [CBK161531]
Second: CS(=O)(=O)Nc1ccc(CNC(=O)c2ccccc2Nc2cccc(C(F)(F)F)c2)cc1 [CBK161732]
The viability at 28.5 h, 10 µM of the first is higher: 96.8% for the first, 85.5% for the second.

First: N#CCCCN1CCC(Oc2nccnc2OCc2ccc(Cl)cc2Cl)CC1 [CBK161568]
Second: N#CCCCN1CCC(Oc2nccnc2OCc2cccc3ccccc23)CC1 [CBK161571]
The viability at 28.5 h, 10 µM of the first is lower: 94.4% for the first, 99.3% for the second.

First: CC(C)c1ccc(COc2nccnc2OC2CCN(CCCC#N)CC2)cc1 [CBK161576]
Second: CC(C)(C)CN1CCC(Oc2nccnc2OCc2ccc(Br)cc2F)CC1 [CBK161946]
The viability at 28.5 h, 10 µM of the first is lower: 96.5% for the first, 116% for the second.

Going from `Clc1ccc(COc2nccnc2OCC2CCCO2)cc1Cl` (stereo not drawn) [CBK161587] to `Clc1ccc(COc2nccnc2OCc2cccnc2)cc1Cl` [CBK161597], the viability at 28.5 h, 10 µM falls from 105% to 85%.

Compared with `CC(COC(C)(C)C)Oc1nccnc1OCc1ccc(Cl)c(Cl)c1` (stereo not drawn) [CBK161607], `CC(Oc1nccnc1OCc1ccc(Cl)c(Cl)c1)c1ccncc1` (stereo not drawn) [CBK161609] is lower in viability at 28.5 h, 10 µM: 113% for the first, 84.1% for the second.

First: Clc1ccc(COc2nccnc2OCc2cccnc2N2CCOCC2)cc1Cl [CBK161610]
Second: Clc1ccc(COc2nccnc2OCCOc2ccccc2)cc1Cl [CBK161853]
The viability at 28.5 h, 10 µM of the first is lower: 88.8% for the first, 92.5% for the second.

First: CCCc1ccc(N(C)C(=O)c2ccc(C(C)(C)C)cc2)cc1 [CBK161612]
Second: CCCc1ccc(N(C)C(=O)c2ccc(OCC)cc2)cc1 [CBK161615]
The viability at 28.5 h, 10 µM of the first is lower: 103% for the first, 107% for the second.

Going from `CCCc1ccc(N(C)C(=O)c2ccc(OC(F)(F)F)cc2)cc1` [CBK161616] to `COC(=O)CCc1ccc(Oc2ncc(C(F)(F)F)cc2Cl)cc1` [CBK161628], the viability at 28.5 h, 10 µM rises from 91.4% to 111%.

Compared with `FC(F)(F)c1cnc(Oc2ccc(-n3ccnc3)cc2)c(Cl)c1` [CBK161625], `O=C(O)Cc1ccc(Oc2ncc(C(F)(F)F)cc2Cl)cc1` [CBK161657] is higher in viability at 28.5 h, 10 µM: 90.9% for the first, 104% for the second.

First: CC(N)(Cc1ccc(Oc2ncc(C(F)(F)F)cc2Cl)cc1)C(=O)O (stereo not drawn) [CBK161647]
Second: CC(C)(C)OC(=O)Nc1ccc(Oc2ncc(C(F)(F)F)cc2Cl)cc1 [CBK161658]
The viability at 28.5 h, 10 µM of the first is lower: 91.9% for the first, 99.2% for the second.

First: O=C(O)c1ccccc1C(=O)c1ccc(Oc2ncc(C(F)(F)F)cc2Cl)cc1 [CBK161648]
Second: CC(=O)N1CCN(c2ccc(Oc3ncc(C(F)(F)F)cc3Cl)cc2)CC1 [CBK161650]
The viability at 28.5 h, 10 µM of the first is higher: 106% for the first, 104% for the second.

Going from `O=C(Nc1nccs1)c1ccc2[nH]ccc2c1` [CBK161731] to `O=C(NCc1ccc2c(c1)OCO2)c1ccc2[nH]ccc2c1` [CBK161750], the viability at 28.5 h, 10 µM rises from 90.5% to 106%.

Compared with `CC(C)(C)OC(=O)Nc1ccc2c(ccn2CCN2CCOCC2)c1` [CBK161767], `CC(C)(C)OC(=O)N1CCC(COc2ccc(-c3ccncc3)cn2)CC1` [CBK161777] is lower in viability at 28.5 h, 10 µM: 95% for the first, 91.8% for the second.

Going from `CC(C)Oc1ccc(C(=O)N2CCC(COc3ccc(-c4ccc(S(C)(=O)=O)cc4)cn3)CC2)nc1` [CBK161989] to `COCC1CCCN1C(=O)c1cnn2c(C)c(Cc3ccc(OC)cc3)c(C)nc12` (stereo not drawn) [CBK162190], the viability at 28.5 h, 10 µM rises from 86.8% to 107%.

Going from `CSCCCNC(=O)c1cnn2c(C)c(Cc3ccccc3C)c(C)nc12` [CBK162028] to `CSCCCNC(=O)c1cnn2c(C)c(Cc3cccnc3)c(C)nc12` [CBK162164], the viability at 28.5 h, 10 µM rises from 96.7% to 104%.

Going from `Cc1nc2c(C(=O)NCCCOC(C)C)cnn2c(C)c1Cc1cccc(Cl)c1` [CBK162043] to `CCOCCCNC(=O)c1cnn2c(C)c(Cc3cccc(OC)c3)c(C)nc12` [CBK162056], the viability at 28.5 h, 10 µM rises from 97.1% to 113%.

First: CCOCCCNC(=O)c1cnn2c(C)c(Cc3cccc(C#N)c3)c(C)nc12 [CBK162081]
Second: COCCNC(=O)c1cnn2c(C)c(Cc3cccc(C#N)c3)c(C)nc12 [CBK162096]
The viability at 28.5 h, 10 µM of the first is higher: 101% for the first, 94.6% for the second.

Compared with `Cc1nc2c(C(=O)NCC(F)(F)F)cnn2c(C)c1Cc1cccc(C#N)c1` [CBK162093], `Cc1nc2c(C(=O)NCC(F)(F)F)cnn2c(C)c1Cc1cccc(F)c1` [CBK162117] is higher in viability at 28.5 h, 10 µM: 91.6% for the first, 112% for the second.

Compared with `COCC1CCCN1C(=O)c1cnn2c(C)c(Cc3cccc(C#N)c3)c(C)nc12` (stereo not drawn) [CBK162099], `Cc1nc2c(C(=O)N3CCNC(=O)C3)cnn2c(C)c1Cc1ccccc1` [CBK162197] is lower in viability at 28.5 h, 10 µM: 99.6% for the first, 90.3% for the second.

Going from `Cc1nc2c(C(=O)NCCCN3CCCC3=O)cnn2c(C)c1Cc1cccc(F)c1` [CBK162104] to `COc1ccc(Cc2c(C)nc3c(C(=O)NCCSC)cnn3c2C)cc1` [CBK162191], the viability at 28.5 h, 10 µM rises from 101% to 111%.

Going from `CCOCCCNC(=O)c1cnn2c(C)c(CC)c(C)nc12` [CBK162129] to `CCc1c(C)nc2c(C(=O)NCCCOC)cnn2c1C` [CBK162149], the viability at 28.5 h, 10 µM falls from 93.7% to 82.2%.

First: CCc1c(C)nc2c(C(=O)NC(CC)COC)cnn2c1C (stereo not drawn) [CBK162133]
Second: CCc1c(C)nc2c(C(=O)NCCSC)cnn2c1C [CBK162147]
The viability at 28.5 h, 10 µM of the first is higher: 97.5% for the first, 97.2% for the second.

First: CCc1c(C)nc2c(C(=O)N3CCOCC3)cnn2c1C [CBK162134]
Second: CCc1c(C)nc2c(C(=O)NCc3cc(C)on3)cnn2c1C [CBK162150]
The viability at 28.5 h, 10 µM of the first is higher: 99.3% for the first, 82.5% for the second.

Compared with `CNC(=O)c1cnn2c(C)c(Cc3cccnc3)c(C)nc12` [CBK162165], `Cc1cnc(CNC(=O)N2CCN(c3cc(C(F)(F)F)ccn3)CC2)cn1` [CBK162320] is higher in viability at 28.5 h, 10 µM: 78.2% for the first, 107% for the second.

Going from `Cc1ccc(C(=O)CN2CCC3(CC2)CC(=O)c2cc(Br)ccc2O3)cc1` [CBK162266] to `O=C(NCC1CCCCC1)N1CCN(c2cc(C(F)(F)F)ccn2)CC1` [CBK162323], the viability at 28.5 h, 10 µM rises from 91.2% to 103%.

same assay, conditions: human, hela cells, % viability, bulk resorufin, single well

First: CS(=O)(=O)c1ccc(-c2ccc3c(c2)COC2(CCN(C(=O)CCCc4ccc(F)cc4)CC2)O3)cc1 [CBK160586]
Second: CS(=O)(=O)c1ccc(-c2ccc3c(c2)COC2(CCN(C(=O)CC4CCCCC4)CC2)O3)cc1 [CBK160589]
The viability at 28.5 h, 10 µM of the first is lower: 92.5% for the first, 96.7% for the second.

First: CS(=O)(=O)c1ccc(-c2ccc3c(c2)COC2(CCN(C(=O)Cc4cccc(C(F)(F)F)c4)CC2)O3)cn1 [CBK160595]
Second: CC(C)(N)C(=O)N1CCC2(CC1)OCc1cc(-c3ccc(S(C)(=O)=O)nc3)ccc1O2 [CBK160868]
The viability at 28.5 h, 10 µM of the first is higher: 114% for the first, 93.3% for the second.

For `CS(=O)(=O)c1ccc(-c2ccc3c(c2)COC2(CCN(C(=O)CC4CCCCC4)CC2)O3)cn1` [CBK160596], the viability at 28.5 h, 10 µM was 93.3%.
